Measurements reported in US9795602B2, “Polycyclic-carbamoylpyridone compounds and their pharmaceutical use” (Gilead Sciences, Inc., priority 2014, dated 2017).
Read-outs that look alike come from different tables or passages of the source.

Assays:
Format in all cases: cell-based
PXR (NR1I2) = PXR (NR1I2) (Homo sapiens (Human), UniProt O75469); test: Human PXR activation assay (luciferase reporter, DPX2 cells); details: human
Method: Luciferase Reporter Gene Assay.
A stably transformed tumor cell line (DPX2) was plated on 96-well microtiter plates. […]. The number of viable cells was determined and the reporter gene activity was assessed. […]

[1] = Cytotoxicity (CC50) in MT4 cells, mock-infected; details: human
Method: Infected and uninfected cells are diluted in cell growth medium and 35 μL of 2000 (for MT4) cells is added to each well of the assay plates. Assay plates were then incubated in a 37° C. incubator. After 5 days of incubation, 25 μL of 2× concentrated CellTiter-Glo™ Reagent (catalog # G7573, Promega Biosciences, Inc., Madison, Wis.) was added to each well of the assay plate. Cell lysis was carried out by incubating at room temperature for 2-3 minutes, and then chemiluminescence was read using the Envision reader (PerkinElmer).

HIV-IIIb = test: Antiviral assay in MT4 cells; details: Human immunodeficiency virus 1, IIIB, MT4, 120 h
Method: 1 mL aliquots of 2×10^6 MT4 cells are pre-infected for 1 and 3 hours respectively at 37° C. with 25 μL (MT4) or of either cell growth medium (mock-infected) or a fresh 1:250 dilution of an HIV-IIIb concentrated ABI stock (0.004 m.o.i. for MT4 cells). Infected and uninfected cells are diluted in cell growth medium and 35 μL of 2000 (for MT4) cells is added to each well of the assay plates.
Assay plates were then incubated in a 37° C. incubator. After 5 days of incubation, 25 μL of 2× concentrated CellTiter-Glo™ Reagent (catalog # G7573, Promega Biosciences, Inc., Madison, Wis.) was added to each well of the assay plate. Cell lysis was carried out by incubating at room temperature for 2-3 minutes, and then chemiluminescence was read using the Envision reader (PerkinElmer).

[2] = 15 uM, DPX2 cells, % Emax relative to rifampicin, adjusted for DMSO background, read-out: PXR % inh at 15 uM (adjusted)
[3] = MT4 cells, HIV-IIIb, 5 days, read-out: EC50

Sequence of PXR (NR1I2) (O75469 whole entry): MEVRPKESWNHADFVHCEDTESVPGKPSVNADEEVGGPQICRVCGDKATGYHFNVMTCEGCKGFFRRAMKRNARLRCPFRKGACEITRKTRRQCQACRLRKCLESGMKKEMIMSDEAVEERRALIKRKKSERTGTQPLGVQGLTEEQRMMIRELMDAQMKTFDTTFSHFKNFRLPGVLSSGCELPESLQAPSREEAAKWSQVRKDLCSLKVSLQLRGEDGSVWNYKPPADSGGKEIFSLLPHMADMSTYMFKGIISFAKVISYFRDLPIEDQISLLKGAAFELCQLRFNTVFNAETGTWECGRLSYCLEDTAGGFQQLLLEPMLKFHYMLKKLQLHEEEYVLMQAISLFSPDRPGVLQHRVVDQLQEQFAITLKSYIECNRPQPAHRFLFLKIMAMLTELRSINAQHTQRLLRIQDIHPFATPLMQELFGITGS

Row | Compound | inhibition at 24 h, 15 µM (PXR (NR1I2); [2]) | CC50 at 5 days ([1]; mock-infected) | EC50 (HIV-IIIb; [3]) | inhibition at 24 h, 15 µM (PXR (NR1I2)) | CC50 at 5 days ([1]; mock-infected (uninfected)) | inhibition at 15 µM (PXR (NR1I2)) | EC50 (HIV-IIIb) | inhibition at 15 µM (PXR (NR1I2); [2])
1 | O=C(NCc1c(F)cc(F)cc1F)c1cn2c(c(O)c1=O)C(=O)N(C1CC1)[C@H]1OCC[C@H]12 (racemic) [Compound 21] | 6% | 31.1 µM | 0.00345 µM | – | – | – | – | –
2 | CCCN1C(=O)c2c(O)c(=O)c(C(=O)NCc3c(F)cc(F)cc3F)cn2[C@@H]2CCO[C@@H]21 (racemic) [Compound 24] | 29% | 37.5 µM | 0.00729 µM | – | – | – | – | –
3 | CN1C(=O)c2c(O)c(=O)c(C(=O)NCc3c(F)cc(F)cc3F)cn2[C@@H]2CCCC[C@H]21 [Compound 1] | – | – | 0.00643 µM | 32% | 27.3 µM | – | – | –
4 | CN1C(=O)c2c(O)c(=O)c(C(=O)NCc3c(F)cc(F)cc3F)cn2[C@H]2CCCC[C@@H]21 [Compound 2] | – | – | 0.0039 µM | 46% | 11.2 µM | – | – | –
5 | CN1C(=O)c2c(O)c(=O)c(C(=O)NCc3c(F)cc(F)cc3F)cn2[C@@H]2CCCC[C@@H]21 [Compound 3] | – | – | 0.00296 µM | – | 11 µM | – | – | –
6 | CCN1C(=O)c2c(O)c(=O)c(C(=O)NCc3c(F)cc(F)cc3F)cn2[C@@H]2CCCC[C@@H]21 [Compound 5] | 66% | – | 0.00474 µM | – | 17 µM | – | – | –
7 | O=C(NCc1c(F)cc(F)cc1F)c1cn2c(c(O)c1=O)C(=O)N(CC(F)(F)F)[C@@H]1CCCC[C@H]12 [Compound 7] | 36% | – | 0.0149 µM | – | 19.8 µM | – | – | –
8 | O=C(NCc1c(F)cc(F)cc1F)c1cn2c(c(O)c1=O)C(=O)N(CC(F)(F)F)[C@@H]1CCOC[C@H]12 [Compound 8] | 24% | – | 0.0165 µM | – | 57.1 µM | – | – | –
9 | CN1C(=O)c2c(O)c(=O)c(C(=O)NCc3c(F)cc(F)cc3F)cn2[C@H]2COCC[C@]21C(F)F [Compound 9] | – | – | – | – | 11.3 µM | 27% | 0.0014 µM | –
10 | CN1C(=O)c2c(O)c(=O)c(C(=O)NCc3c(F)cc(F)cc3F)cn2[C@@H]2CCOC[C@H]21 [Compound 10] | – | – | 0.00765 µM | – | 34.9 µM | – | – | –
11 | CN1C(=O)c2c(O)c(=O)c(C(=O)NCc3ccc(F)c(Cl)c3F)cn2[C@@H]2CCOC[C@H]21 [Compound 11] | 4% | – | 0.00369 µM | – | 8.32 µM | – | – | –
12 | CCN1C(=O)c2c(O)c(=O)c(C(=O)NCc3ccc(F)c(Cl)c3F)cn2[C@@H]2CCOC[C@H]21 [Compound 13] | 5% | – | 0.0107 µM | – | 7.32 µM | – | – | –
13 | CN1C(=O)c2c(O)c(=O)c(C(=O)NCc3c(F)cc(F)cc3F)cn2[C@H]2COCC[C@]21C [Compound 14] | 26% | – | 0.00289 µM | – | 11.6 µM | – | – | –
14 | CCN1C(=O)c2c(O)c(=O)c(C(=O)NCc3cc(Cl)c(F)cc3F)cn2[C@H]2CCOC[C@H]21 [Compound 15] | 6% | – | 0.00792 µM | – | 14.9 µM | – | – | –
15 | CCN1C(=O)c2c(O)c(=O)c(C(=O)NCc3cccc(Cl)c3F)cn2[C@H]2CCOC[C@H]21 [Compound 16] | 7% | – | 0.00213 µM | – | 11.5 µM | – | – | –
16 | CCN1C(=O)c2c(O)c(=O)c(C(=O)NCc3cc(F)c(F)cc3F)cn2[C@H]2CCOC[C@H]21 [Compound 17] | 7% | – | 0.00481 µM | – | 23.9 µM | – | – | –
17 | CCN1C(=O)c2c(O)c(=O)c(C(=O)NCc3cccc(F)c3F)cn2[C@H]2CCOC[C@H]21 [Compound 18] | 2% | – | 0.00333 µM | – | 26.9 µM | – | – | –
18 | CCN1C(=O)c2c(O)c(=O)c(C(=O)NCc3ccc(F)c(F)c3F)cn2[C@H]2CCOC[C@H]21 [Compound 19] | 11% | – | 0.00428 µM | – | 27.8 µM | – | – | –
19 | CCN1C(=O)c2c(O)c(=O)c(C(=O)NCc3ccc(F)c(F)c3)cn2[C@H]2CCOC[C@H]21 [Compound 20] | 1% | – | 0.0096 µM | – | 34.1 µM | – | – | –

Row | Compound | inhibition at 24 h, 15 µM (PXR (NR1I2); [2]) | CC50 at 5 days ([1]; mock-infected) | EC50 (HIV-IIIb; [3]) | inhibition at 24 h, 15 µM (PXR (NR1I2)) | CC50 at 5 days ([1]; mock-infected (uninfected)) | inhibition at 15 µM (PXR (NR1I2)) | EC50 (HIV-IIIb) | inhibition at 15 µM (PXR (NR1I2); [2])
20 | CN1C(=O)c2c(O)c(=O)c(C(=O)NCc3c(F)cc(F)cc3F)cn2[C@@H]2CCO[C@@H]21 [Compound 23] | 8% | – | 0.00377 µM | – | 18 µM | – | – | –
21 | CCN1C(=O)c2c(O)c(=O)c(C(=O)NCc3ccc(F)c(Cl)c3F)cn2[C@@H]2CCO[C@@H]21 [Compound 25a] | 20% | – | 0.00458 µM | – | 25.9 µM | – | – | –
22 | CCN1C(=O)c2c(O)c(=O)c(C(=O)NCc3c(F)cc(F)cc3F)cn2[C@@H]2CCO[C@@H]21 [Compound 26a] | 15% | – | 0.00527 µM | – | 24.3 µM | – | – | –
23 | CCN1C(=O)c2c(O)c(=O)c(C(=O)NCc3c(F)cc(F)cc3F)cn2[C@H]2CCO[C@H]21 [Compound 26b] | 24% | – | 0.00493 µM | – | 30.9 µM | – | – | –
24 | CN1C(=O)c2c(O)c(=O)c(C(=O)NCc3ccc(F)c(Cl)c3F)cn2[C@@H]2CCO[C@@H]21 [Compound 27] | – | – | 0.00117 µM | – | 57.1 µM | – | – | –
25 | O=C(NCc1c(F)cc(F)cc1F)c1cn2c(c(O)c1=O)C(=O)N[C@H]1CCC[C@H]12 [Compound 28] | 4% | – | 0.0044 µM | – | 10.8 µM | – | – | –
26 | CN1C(=O)c2c(O)c(=O)c(C(=O)NCc3c(F)cc(F)cc3F)cn2[C@@H]2CCC[C@@H]21 [Compound 29] | – | – | – | – | – | – | – | 49%
27 | CN1C(=O)c2c(O)c(=O)c(C(=O)NCc3c(F)cc(F)cc3F)cn2[C@@H]2CCOC[C@@H]21 [Compound 30] | 9% | – | 0.00325 µM | – | 10.4 µM | – | – | –
28 | O=C(NCc1c(F)cc(F)cc1F)c1cn2c(c(O)c1=O)C(=O)N(CC(F)F)[C@@H]1COCC[C@@H]12 [Compound 34] | 3% | – | 0.00223 µM | – | 32.3 µM | – | – | –
29 | O=C(NCc1c(F)cc(F)cc1F)c1cn2c(c(O)c1=O)C(=O)N(CC(F)(F)F)[C@@H]1COCC[C@H]12 [Compound 35] | 6% | – | 0.0038 µM | – | 16.5 µM | – | – | –
30 | O=C(NCc1ccc(F)c(Cl)c1F)c1cn2c(c(O)c1=O)C(=O)N(CC(F)F)[C@@H]1COCC[C@@H]12 [Compound 36] | 5% | – | 0.00158 µM | – | 19.7 µM | – | – | –
31 | CCCN1C(=O)c2c(O)c(=O)c(C(=O)NCc3c(F)cc(F)cc3F)cn2[C@H]2CCOC[C@H]21 [Compound 37] | 35% | – | 0.00427 µM | – | 33.9 µM | – | – | –
32 | CC(C)N1C(=O)c2c(O)c(=O)c(C(=O)NCc3c(F)cc(F)cc3F)cn2[C@H]2CCOC[C@H]21 [Compound 38] | 67% | – | 0.00283 µM | – | 16.6 µM | – | – | –
33 | CCN1C(=O)c2c(O)c(=O)c(C(=O)NCc3c(F)cc(F)cc3F)cn2[C@H]2CCC(=O)C[C@H]21 [Compound 40a] | – | – | 0.00128 µM | 4% | 29 µM | – | – | –
34 | CCN1C(=O)c2c(O)c(=O)c(C(=O)NCc3c(F)cc(F)cc3F)cn2[C@H]2CCC3(C[C@H]21)OCCO3 [Compound 40b] | – | – | 0.00131 µM | 22% | 23.1 µM | – | – | –
35 | CN1C(=O)c2c(O)c(=O)c(C(=O)NCc3c(F)cc(F)cc3F)cn2[C@H]2COC[C@H]21 [Compound 42] | 3% | – | 0.00567 µM | – | 31.9 µM | – | – | –
36 | CN1C(=O)c2c(O)c(=O)c(C(=O)NCc3c(F)cc(F)cc3F)cn2[C@@H]2COC[C@@H]21 [Compound 43] | 13% | – | 0.00288 µM | – | 11.3 µM | – | – | –
37 | CN1C(=O)c2c(O)c(=O)c(C(=O)NCc3c(F)cc(F)cc3F)cn2[C@H]2CCC[C@H]21 [Compound 58] | – | – | – | – | – | – | – | 25%
